# Several values for one entry are separate records, joined by “and”; a condition that tells them apart may be missing. Equal values may be shown once. Read-outs that look alike come from different tables or passages of the source.
# Tests used:
# [1] = target: T1, panel of 255 (vepafestinib) or 256 (all other inhibitors) recombinant kinases (Homo sapiens, UniProt P16234); test: Kinase selectivity profiling at a single concentration (Carna Biosciences); format: biochemical; details: 17 nM
# T1 construct: purchased Carna Biosciences
# T1 sequence (P16234 24-1089): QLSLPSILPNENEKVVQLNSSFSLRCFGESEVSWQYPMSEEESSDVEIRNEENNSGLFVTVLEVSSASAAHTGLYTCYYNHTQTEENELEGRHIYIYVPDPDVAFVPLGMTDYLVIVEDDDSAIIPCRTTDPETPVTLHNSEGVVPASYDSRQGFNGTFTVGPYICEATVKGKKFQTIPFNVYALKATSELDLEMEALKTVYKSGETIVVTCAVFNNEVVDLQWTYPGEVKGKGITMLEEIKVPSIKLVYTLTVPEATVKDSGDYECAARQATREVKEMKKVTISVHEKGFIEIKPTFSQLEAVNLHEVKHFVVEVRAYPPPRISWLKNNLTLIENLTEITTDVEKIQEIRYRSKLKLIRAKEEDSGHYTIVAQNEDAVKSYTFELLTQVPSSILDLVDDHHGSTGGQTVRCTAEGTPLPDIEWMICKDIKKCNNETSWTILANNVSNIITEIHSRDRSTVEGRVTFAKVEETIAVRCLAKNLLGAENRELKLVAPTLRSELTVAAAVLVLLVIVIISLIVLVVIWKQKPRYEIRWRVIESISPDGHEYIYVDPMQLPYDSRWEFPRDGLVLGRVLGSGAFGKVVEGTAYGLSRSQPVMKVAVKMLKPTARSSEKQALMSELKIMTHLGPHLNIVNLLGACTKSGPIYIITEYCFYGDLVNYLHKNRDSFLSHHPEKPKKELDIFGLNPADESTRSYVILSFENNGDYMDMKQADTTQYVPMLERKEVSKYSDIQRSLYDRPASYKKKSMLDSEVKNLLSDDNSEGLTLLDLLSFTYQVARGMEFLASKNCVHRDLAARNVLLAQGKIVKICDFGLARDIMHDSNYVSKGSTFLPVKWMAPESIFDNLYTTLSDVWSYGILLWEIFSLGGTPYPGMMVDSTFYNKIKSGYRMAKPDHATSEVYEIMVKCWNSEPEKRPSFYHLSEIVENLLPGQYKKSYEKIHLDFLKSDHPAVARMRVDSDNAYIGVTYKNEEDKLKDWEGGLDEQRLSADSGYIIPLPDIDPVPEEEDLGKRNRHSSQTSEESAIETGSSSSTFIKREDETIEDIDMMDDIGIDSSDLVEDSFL
# [2] = target: T2, panel of 255 (vepafestinib) or 256 (all other inhibitors) recombinant kinases (Homo sapiens, UniProt P35916); test: as above; format: biochemical; details: 17 nM
# T2 construct: purchased Carna Biosciences
# T2 sequence (P35916 25-1363): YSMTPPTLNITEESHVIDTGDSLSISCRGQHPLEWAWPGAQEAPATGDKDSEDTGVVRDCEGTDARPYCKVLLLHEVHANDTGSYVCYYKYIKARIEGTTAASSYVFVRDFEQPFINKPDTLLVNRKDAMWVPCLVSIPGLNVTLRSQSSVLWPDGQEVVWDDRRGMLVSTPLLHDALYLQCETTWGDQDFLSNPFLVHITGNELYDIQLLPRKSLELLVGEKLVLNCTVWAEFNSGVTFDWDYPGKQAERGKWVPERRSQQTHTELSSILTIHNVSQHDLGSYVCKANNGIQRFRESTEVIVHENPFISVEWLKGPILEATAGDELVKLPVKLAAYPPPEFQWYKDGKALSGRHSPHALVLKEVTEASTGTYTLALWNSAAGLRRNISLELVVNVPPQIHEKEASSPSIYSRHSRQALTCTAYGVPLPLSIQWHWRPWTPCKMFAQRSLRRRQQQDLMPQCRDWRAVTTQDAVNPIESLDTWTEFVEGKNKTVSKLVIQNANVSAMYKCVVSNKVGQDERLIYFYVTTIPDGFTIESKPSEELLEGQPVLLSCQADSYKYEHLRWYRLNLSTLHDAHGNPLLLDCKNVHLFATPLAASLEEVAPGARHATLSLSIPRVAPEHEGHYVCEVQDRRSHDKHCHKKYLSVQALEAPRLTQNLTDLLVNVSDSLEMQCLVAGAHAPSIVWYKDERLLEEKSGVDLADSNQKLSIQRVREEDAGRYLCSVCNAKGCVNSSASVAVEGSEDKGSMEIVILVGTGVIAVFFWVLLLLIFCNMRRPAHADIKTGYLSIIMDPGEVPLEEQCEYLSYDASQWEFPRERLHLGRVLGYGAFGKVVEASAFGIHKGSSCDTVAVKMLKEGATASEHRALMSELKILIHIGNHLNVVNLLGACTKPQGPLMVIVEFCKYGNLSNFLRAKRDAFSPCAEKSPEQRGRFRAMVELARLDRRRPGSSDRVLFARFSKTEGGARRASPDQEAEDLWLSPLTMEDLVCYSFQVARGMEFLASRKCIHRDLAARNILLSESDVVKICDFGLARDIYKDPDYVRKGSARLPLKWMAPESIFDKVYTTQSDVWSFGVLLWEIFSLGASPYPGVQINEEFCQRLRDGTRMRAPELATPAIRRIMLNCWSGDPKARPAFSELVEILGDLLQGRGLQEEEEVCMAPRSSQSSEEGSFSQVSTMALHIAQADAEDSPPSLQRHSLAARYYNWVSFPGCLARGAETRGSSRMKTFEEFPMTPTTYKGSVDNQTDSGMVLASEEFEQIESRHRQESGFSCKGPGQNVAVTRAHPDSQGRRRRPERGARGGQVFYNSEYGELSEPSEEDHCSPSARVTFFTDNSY
# [3] = target: panel of 255 (vepafestinib) or 256 (all other inhibitors) recombinant kinases; test: as above; format: biochemical; details: 17 nM, 256 kinases
# Ba/F3 cells = test: Growth inhibition assay in Ba/F3 cells (CellTiter-Glo, 72 h); format: cell-based; details: replicate Sets 1-3
# [4] = test system: Ba/F3 cells expressing KIF5B–RET^WT; test: as above; format: cell-based; details: replicate sets
# [5] = test system: Ba/F3 cells expressing KIF5B–RET^G810R; test: as above; format: cell-based; details: replicate Sets 1-3
# [6] = test system: Ba/F3 cells expressing KIF5B–RET^G810C; test: as above; format: cell-based; details: replicate Sets 1-3
# [7] = test system: Ba/F3 cells expressing KIF5B–RET^V804L; test: as above; format: cell-based; details: Ba/3-KIF5B-RET-V804L; replicate sets
# [8] = test system: Ba/F3 cells expressing KIF5B–RET^V804M; test: as above; format: cell-based; details: replicate sets
# [9] = test system: phosphorylation of RET^G810R, RET^G810S and RET^G810C in Ba/F3 cells; test: Western blotting of RET phosphorylation in Ba/F3 KIF5B–RET cells; format: cell-based; details: 1 h, western blot
# [10] = test system: LUAD-0002AS1 cells (KIF5B::RET); test: Dose-response western blotting, EC50 for inhibition of protein phosphorylation; format: cell-based; details: Homo sapiens, LUAD-0002AS1, 2 h, densitometry
# HBECp53-EV cells = test: Growth inhibition (alamarBlue, 96 h); format: cell-based, human; details: for raw viability signal (Source Data Fig. 3b-c): HBEC-EV, replicate sets
# LUAD-0086AS3 cells = test: Growth inhibition (alamarBlue, 96 h); format: cell-based, human; details: for raw viability signal (Source Data Fig. 3b-c): LUAD-0086AS3 (n=1, 3 replicates)
# MMNK1 cholangiocytes = test: Growth inhibition (alamarBlue, 96 h); format: cell-based, human; details: for raw viability signal (Source Data Fig. 3b-c): MMNK, replicates
# LUAD-0087AS2 PDX = test: PDX efficacy study; details: pralsetinib 30 mg/kg BID
# [11] = Homo sapiens, 96 h, read-out: IC50 for Inhibition of Growth (95% CI)
smiles,measurement,setting,value
CO[C@]1(C(=O)N[C@@H](C)c2ccc(-n3cc(F)cn3)nc2)CC[C@H](c2nc(C)cc(Nc3cc(C)[nH]n3)n2)CC1 [Pralsetinib],% Inhibiton PDGFRα,[1],57.1%
same,% Inhibiton FLT4,[2],74%
same,kinases inhibited by >50%,[3],11
same,GI50,Ba/F3 cells; Ba/F3 (parental),1420 nM
same,GI50,"Ba/F3 cells; Mus musculus, BaF3, Ba/F3 (parental)",1070 nM
same,GI50,[4]; Ba/3-KIF5B-RET,7.33 nM and 4.09 nM
same,GI50,"[4]; Mus musculus, BaF3, Ba/3-KIF5B-RET",8.11 nM
same,GI50,[5]; Ba/3-KIF5B-RET-G810R,1420 nM and 1200 nM
same,GI50,"[5]; Mus musculus, BaF3, Ba/3-KIF5B-RET-G810R",816 nM
same,GI50,[6]; Ba/3-KIF5B-RET-G810C,44.4 nM
same,GI50,"[6]; Mus musculus, BaF3, Ba/3-KIF5B-RET-G810C",66.9 nM
same,GI50,[7],10.6 nM and 6.67 nM and 4.32 nM
same,GI50,[8]; Ba/3-KIF5B-RET-V804M,7.93 nM and 8.94 nM
same,GI50,"[8]; Mus musculus, BaF3, Ba/3-KIF5B-RET-V804M",8.92 nM
same,"block of phosphorylation of RET^G810R, RET^G810S or RET^G810C",[9],did not block
same,EC50,"[10]; read-out: EC50 for Inhibition of Protein Phosphorylation (95% CI), AKT S473",0.4 nM
same,EC50,"[10]; read-out: EC50 for Inhibition of Protein Phosphorylation (95% CI), ERK1/2 T202/Y204",3.5 nM
same,EC50,"[10]; read-out: EC50 for Inhibition of Protein Phosphorylation (95% CI), MEK1/2 S217/S221",0.9 nM
same,EC50,"[10]; read-out: EC50 for Inhibition of Protein Phosphorylation (95% CI), P70 RSK T421/S424",1.7 nM
same,EC50,"[10]; read-out: EC50 for Inhibition of Protein Phosphorylation (95% CI), RET Y905",1.1 nM
same,EC50,"[10]; read-out: EC50 for Inhibition of Protein Phosphorylation (95% CI), S6RP S235/S236",1.1 nM
same,raw viability signal (Source Data Fig. 3b-c),HBECp53-EV cells; 0.01 nM,18620.9 (2×) and 26084.1 and 32208.8
same,raw viability signal (Source Data Fig. 3b-c),HBECp53-EV cells; 0.1 nM,18754 (2×) and 26388.7 and 34047.4
same,raw viability signal (Source Data Fig. 3b-c),HBECp53-EV cells; 1 nM,20833.4 (2×) and 23057.6 and 32620.9
same,raw viability signal (Source Data Fig. 3b-c),HBECp53-EV cells; 10 nM,19432.8 (2×) and 24252.3 and 33045.2
same,raw viability signal (Source Data Fig. 3b-c),HBECp53-EV cells; 100 nM,20060.8 (2×) and 26236.5 and 33461.6
same,raw viability signal (Source Data Fig. 3b-c),HBECp53-EV cells; 1000 nM,13712.5 (2×) and 19031.7 and 36040.1
same,raw viability signal (Source Data Fig. 3b-c),HBECp53-EV cells; 10000 nM,6305.27 (2×) and 11469.7 and 22649.7
same,IC50,HBECp53-EV cells; [11],6900 nM
same,IC50,LUAD-0086AS3 cells; [11],121 nM
same,raw viability signal (Source Data Fig. 3b-c),LUAD-0086AS3 cells; 0.01 nM,31309.7 and 31098.7 and 34263.2
same,raw viability signal (Source Data Fig. 3b-c),LUAD-0086AS3 cells; 0.1 nM,29924.8 and 30921.2 and 29063.2
same,raw viability signal (Source Data Fig. 3b-c),LUAD-0086AS3 cells; 1 nM,27745.6 and 30045.6 and 27962.9
same,raw viability signal (Source Data Fig. 3b-c),LUAD-0086AS3 cells; 10 nM,27211.8 and 27719.7 and 26448.1
same,raw viability signal (Source Data Fig. 3b-c),LUAD-0086AS3 cells; 100 nM,16795 and 17102.3 and 12766
same,raw viability signal (Source Data Fig. 3b-c),LUAD-0086AS3 cells; 1000 nM,14016.5 and 12908.6 and 9876.85
same,raw viability signal (Source Data Fig. 3b-c),LUAD-0086AS3 cells; 10000 nM,5069.85 and 4707.96 and 4562.26
same,IC50,MMNK1 cholangiocytes; [11],1220 nM
same,raw viability signal (Source Data Fig. 3b-c),MMNK1 cholangiocytes; 0.01 nM,14061.5 and 14595.7
same,raw viability signal (Source Data Fig. 3b-c),MMNK1 cholangiocytes; 0.1 nM,14508.1 and 15314.3
same,raw viability signal (Source Data Fig. 3b-c),MMNK1 cholangiocytes; 1 nM,14527.4 and 15275.2
same,raw viability signal (Source Data Fig. 3b-c),MMNK1 cholangiocytes; 10 nM,14437.6 and 14593.5
same,raw viability signal (Source Data Fig. 3b-c),MMNK1 cholangiocytes; 100 nM,12743.6 and 12893.3
same,raw viability signal (Source Data Fig. 3b-c),MMNK1 cholangiocytes; 1000 nM,8417.95 and 8619.63
same,raw viability signal (Source Data Fig. 3b-c),MMNK1 cholangiocytes; 10000 nM,2073.73 and 2410.62
same,Change in tumor volume (% from base line),"LUAD-0087AS2 PDX; Fig. 6a LUAD-0087AS2, individual animals",-36.557% and -40.331% and -44.442% and -50.767%
same,Area Under Curve Mean,LUAD-0087AS2 PDX; Fig. 6a LUAD-0087AS2 tumor growth,-1718
